Measured values from patent US20190160021A1, “Substituted Stilbenes as Inhibitors of NF-kappaB and Activators of Nrf2” (STC.UNM, priority 2017, published 2019).

System: not given
Experiment: not given
Conditions: not given

melting point [°C] | SMILES
34 to 35 | COc1ccccc1/C=C/c1ccccc1F [trans stilbene 10, (E)-1-Fluoro-2-(2-methoxystyryl)benzene]
50 to 51 | COc1cccc(/C=C/c2ccc(F)cc2)c1OC [trans stilbene 17, (E)-1-(4-Fluorostyryl)-2,3-dimethoxybenzene]
58 to 59 | COc1ccc(OC)c(/C=C/c2ccc(F)cc2)c1 [trans stilbene 18, (E)-2-(4-Fluorostyryl)-1,4-dimethoxybenzene]
90 to 92 | Cc1ccc(/C=C/c2ccc(F)c(F)c2)cc1 [trans stilbene 22, (E)-1,2-Difluoro-4-(4-methylstyryl)benzene]
109 to 110 | COc1ccc(/C=C/c2cc(F)ccc2F)cc1 [trans stilbene 23, (E)-1,4-Difluoro-2-(4-methoxystyryl)benzene]
85 to 86 | Fc1ccc(/C=C/c2ccccc2F)cc1F [trans stilbene 24, (E)-1,2-Difluoro-4-(2-fluorostyryl)benzene]
73 to 74 | COc1ccc(/C=C/c2ccc(F)c(F)c2)cc1 [trans stilbene 26, (E)-1,2-Difluoro-4-(4-methoxystyryl)benzene]
48 to 49 | Fc1cccc(/C=C/c2ccc(F)c(F)c2)c1 [trans stilbene 30, (E)-1,2-Difluoro-4-(3-fluorostyryl)benzene]
73 to 74 | Fc1cccc(/C=C/c2cc(F)ccc2F)c1 [trans stilbene 34, (E)-1,4-Difluoro-2-(3-fluorostyryl)benzene]
60 to 61 | Fc1cccc(/C=C/c2ccc(F)cc2F)c1 [trans stilbene 35, (E)-2,4-Difluoro-1-(3-fluorostyryl)benzene]
84 to 85 | Fc1ccc(/C=C/c2ccccc2F)c(F)c1 [trans stilbene 36, (E)-2,4-Difluoro-1-(2-fluorostyryl)benzene]
72 to 73 | Cc1ccc(/C=C/c2ccc(F)cc2F)cc1 [trans stilbene 37, (E)-2,4-Difluoro-1-(4-methylstyryl)benzene]
76 to 77 | Fc1ccc(/C=C/c2cc(F)ccc2F)cc1 [trans stilbene 40, (E)-1,4-Difluoro-2-(4-fluorostyryl)benzene]
38 to 40 | COc1cccc(/C=C/c2ccc(C)cc2)c1OC [trans stilbene 48, (E)-1,2-Dimethoxy-3-(4-methylstyryl)benzene]
49 to 50 | COc1cccc(/C=C/c2ccccc2OC)c1 [trans stilbene 49, (E)-1-Methoxy-2-(3-methoxystyryl)benzene]
48 to 49 | COc1cccc(/C=C/c2cc(OC)ccc2OC)c1 [trans stilbene 50, (E)-1,4-Dimethoxy-2-(3-methoxystyryl)benzene]
67 to 69 | COc1cccc(/C=C/c2ccc(C(F)(F)F)cc2)c1OC [trans stilbene 54, (E)-1,2-Dimethoxy-3-(4-(trifluoromethyl)styryl)benzene]

System: Nrf2
Experiment: Nrf2-ARE reporter-HepG2 stable cell line luciferase reporter assay for activators of Nrf2
Assay type: cell-based
Conditions: Nrf2-ARE reporter-HepG2 cells, from dose-response curves; read-out: EC50, concentration that produced 50% activation of Nrf2
Procedure: A Nrf2-ARE reporter-HepG2 stable cell line (BPS Bioscience, San Diego, Calif.) is grown in a humidified atmosphere at 37° C. in 5% CO295% air. The cells are maintained in MEM medium with Earles balanced salts and L-glutamine supplemented with 10% fetal bovine serum (FBS), 1 mM sodium pyruvate, 1% non-essential amino acids, 100 units/ml penicillin, 100 μg/ml streptomycin, and 400 μg/ml Geneticin. One day prior to treatment, the Nrf2-ARE cells are plated into 24-well cell culture plates at approximately 30% confluency in the above media without Geneticin. The following day, fresh media with or without substituted trans stilbene or sulforaphane is applied to the cells. DMSO concentrations are kept at 0.1%. The cells are again placed in a humidified atmosphere at 37° C. in 5% CO2/95% air for 5 hours. Plate wells are gently washed with phosphate buffered saline (PBS) pH 7.4 and lysed with 1× passive lysis buffer (Promega, Madison, Wis., USA). The subsequent lysates are analyzed with the Luciferase Assay System (Promega) utilizing a GloMax 20/20 luminometer (Promega, Sunnyvale, Calif., USA). The firefly luciferase relative light units are normalized to protein (mg/ml) with BCATM Protein Assay Kit protein (Pierce, Rockford, Ill., USA)

EC50 [µM] | SMILES
5.4 | Oc1ccc(C=Cc2cc(O)cc(O)c2)cc1 [Resveratrol, resveratrol]
1.2 | C[S+]([O-])CCCCN=C=S (centres unmarked) [sulforaphane]

Same assay, conditions: Nrf2-ARE reporter-HepG2 cells, screened at 15 μM

SMILES | fold activation (extent of activation) of Nrf2 [fold]
COc1cccc(/C=C/c2ccc(C(F)(F)F)cc2)c1OC [trans stilbene 54, (E)-1,2-Dimethoxy-3-(4-(trifluoromethyl)styryl)benzene] | 65.5
